In data set [1] the target is T1, S-adenosylmethionine synthase isoform type-2 (Homo sapiens, UniProt P31153). Description: Inhibition of recombinant human MAT2A expressed in baculovirus infected Sf9 cells assessed as S-adenosyl methionine production using L-methionine as substrate incubated for 60 mins followed by substrate addition and measured after 60 mins.
Target sequence in this assay (P31153 whole entry, canonical isoform): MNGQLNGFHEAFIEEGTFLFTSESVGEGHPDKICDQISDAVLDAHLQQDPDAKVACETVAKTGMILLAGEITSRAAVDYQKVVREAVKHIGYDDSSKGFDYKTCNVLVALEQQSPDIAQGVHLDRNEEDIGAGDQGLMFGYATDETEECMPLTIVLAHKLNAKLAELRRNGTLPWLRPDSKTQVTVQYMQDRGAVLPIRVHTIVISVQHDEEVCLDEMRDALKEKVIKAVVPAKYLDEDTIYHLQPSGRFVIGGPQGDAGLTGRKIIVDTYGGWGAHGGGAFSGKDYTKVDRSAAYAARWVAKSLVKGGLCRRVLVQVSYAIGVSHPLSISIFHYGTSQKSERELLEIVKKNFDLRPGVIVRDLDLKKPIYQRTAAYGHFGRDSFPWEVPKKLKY
In data set [2] the target is T1, S-adenosylmethionine synthase isoform type-2. Description: Inhibition of recombinant human MAT2A expressed in baculovirus infected Sf9 cells assessed as S-adenosyl methionine production using L-methionine as substrate incubated for 60 mins followed by substrate addition and measured after 60 mins relative to control. On the set-up: concentration or dose not given beside the values.
Target sequence in this assay (P31153 whole entry, looked up, canonical isoform): as the sequence (P31153 whole entry, canonical isoform) above

The nature of data set [3]: Stability in human liver microsomes assessed as extraction ratio. It counts as ADME, Microsome. The settings on record: read-out: ERH.
A further data set concerns HCT-116. Description: cells. The settings on record: Homo sapiens, HCT-116, 96 h.
The nature of a further data set: cells. The settings on record: Homo sapiens, HCT-116, 72 h.

Active and inactive are the calls of the source. The rule behind the calls is not given here.

With `Cc1cc(=O)n2nc(-c3ccccc3)c(C3CCCCC3)c2[nH]1`, the IC50 in data set [1] (read-out: IC50) came out at 0.66 µM. Further, in data set [2], the inhibition is 59%.
On the same counts, the results for `Cc1[nH]c2c(N3CCCCC3)c(-c3ccccc3)nn2c(=O)c1-c1ccccc1` are 0.15 µM and 93%.
The matching figures for `O=c1cc(Nc2ccccc2)[nH]c2c(-c3ccccc3)c(-c3ccccc3)nn12`: 16.6 µM and 70%.
The matching figures for `Cc1[nH]c2c(N3CCCCC3)c(-c3ccccc3)nn2c(=O)c1-c1ccncc1`: 0.16 µM and 91%.
As to `Nc1cc(=O)n2nc(-c3ccccc3)c(-c3ccccc3)c2[nH]1`, in data set [1] (sf9), the IC50 entry is “Not Active”.
In the case of `O=c1c(-c2ccc3ncccc3c2)c(Nc2cc[nH]n2)[nH]c2c(C3=CCCCC3)c(-c3ccccc3)nn12`, the IC50 in data set [1] (read-out: IC50) came to 0.004 µM; with HCT-116 it was 0.073 µM; in “cells” it was 0.018 µM. Further, the inhibition in data set [2] is 92%. The hepatic extraction ratio in data set [3] worked out at 0.55.
For `Cc1[nH]c2c(C3=CCCCC3)c(-c3ccccc3)nn2c(=O)c1-c1ccc2ncccc2c1`, in data set [1] (read-out: IC50), the IC50 is 0.025 µM. For the same compound, the inhibition in data set [2] was 96%.
The matching figures for `Cc1[nH]c2c(C3=CCCC3)c(-c3ccccc3)nn2c(=O)c1-c1ccc2ncccc2c1`: 0.159 µM and 96%.
As to `Cc1[nH]c2c(N3CCCCC3)c(-c3ccccc3)nn2c(=O)c1-c1ccc2[nH]cnc2c1`, in data set [1] (read-out: IC50), the IC50 is 0.045 µM. For the same compound, the inhibition in data set [2] worked out at 92%. The hepatic extraction ratio in data set [3] came out at 0.79.
For the compound `Cc1cc(=O)n2nc(-c3ccccc3)c(C3CCCC3)c2[nH]1`, the IC50 in data set [1] (read-out: IC50) amounted to 0.68 µM. Moreover, the inhibition in data set [2] amounted to 88%.
The matching figures for `Cc1cc(=O)n2nc(-c3ccccc3)c(-c3ccccn3)c2[nH]1`: 7.1 µM and 79%.
For `Cc1cc(=O)n2nc(-c3ccccc3)c(C3=CCCC3)c2[nH]1`, the IC50 is 1.14 µM in data set [1] (read-out: IC50), 82 µM with HCT-116 and 0.588 µM in “cells”. Further, in data set [2], the inhibition was determined as 84%.
On to `CCc1cc(=O)n2nc(-c3ccccc3)c(-c3ccccc3)c2[nH]1`, for which the IC50 in data set [1] (read-out: IC50) was 3.66 µM. In data set [2], the inhibition was determined as 54%.
Consider `Cc1[nH]c2c(N3CCCCC3)c(-c3ccccc3)nn2c(=O)c1-c1ccc2[nH]c(N)nc2c1`, for which the IC50 in data set [1] (read-out: IC50) was determined as 0.083 µM. The inhibition in data set [2] is 94%. Besides, in data set [3], the hepatic extraction ratio is 0.75.
Consider `CCOC(=O)c1nnc(Nc2[nH]c3c(-c4ccccc4)c(-c4ccccc4)nn3c(=O)c2-c2ccc3ncccc3c2)o1`, for which the half-inhibitory concentration (IC50) in data set [1] (read-out: IC50) was 0.004 µM. Moreover, in data set [2], the inhibition came out at 88%. For the same compound, the hepatic extraction ratio in data set [3] came to 0.7.
For `COc1ccc(-c2c(Nc3ccccn3)[nH]c3c(-c4ccccc4)c(-c4ccccc4)nn3c2=O)cc1`, the figures for the IC50 (in data set [1] (read-out: IC50); in the data set with HCT-116; in the data set “cells”) were 0.007 µM, 0.793 µM and 0.025 µM, respectively. Moreover, the inhibition in data set [2] was 85%. Moreover, in data set [3], the hepatic extraction ratio was 0.13.
On to `Cc1cc(=O)n2nc(C3=CCCCC3)c(-c3ccccc3)c2[nH]1`, for which, in data set [1] (sf9), the IC50 entry is given as “Not Active”.
Take `COc1ccc(-c2c(Nc3cc[nH]n3)[nH]c3c(C4=CCCCC4)c(-c4ccccc4)nn3c2=O)cc1`: the IC50 in data set [1] (read-out: IC50) stood at 0.005 µM; in the data set with HCT-116, 0.08 µM; in the data set “cells”, 0.021 µM. Further, the inhibition in data set [2] turned out to be 96%. Further, in data set [3], the hepatic extraction ratio was determined as 0.56.
On to `Cc1[nH]c2c(N3CCCCC3)c(-c3ccccc3)nn2c(=O)c1-c1cscn1`, for which, in data set [1] (read-out: IC50), the half-inhibitory concentration (IC50) was 0.158 µM. The inhibition in data set [2] came to 85%.
The matching figures for `Cc1cc(=O)n2nc(-c3ccccc3)c(-c3ccco3)c2[nH]1`: 3.66 µM and 90%.
Regarding `COc1ccc(-c2c(Nc3cnccn3)[nH]c3c(C4=CCCCC4)c(-c4ccccc4)nn3c2=O)cc1`, the IC50 in data set [1] (read-out: IC50) was 0.028 µM; in the data set on HCT-116 it was 0.409 µM; in “cells” it was 0.016 µM. Moreover, the inhibition in data set [2] is 95%.
Consider `CC(=O)Nc1cc(=O)n2nc(-c3ccccc3)c(-c3ccccc3)c2[nH]1`, for which the IC50 in data set [1] (read-out: IC50) came to 4.11 µM. The inhibition in data set [2] was determined as 85%.
As to `COc1ccc(-c2c(Nc3ccon3)[nH]c3c(C4=CCCCC4)c(-c4ccccc4)nn3c2=O)cc1`, the figures for the IC50 (in data set [1] (read-out: IC50); with HCT-116; in the data set “cells”) were 0.01 µM, 0.812 µM and 0.065 µM, respectively. For the same compound, the inhibition in data set [2] turned out to be 94%. In addition, the hepatic extraction ratio in data set [3] worked out at 0.11.
Regarding `Cc1[nH]c2c(N3CCCCC3)c(-c3ccccc3)nn2c(=O)c1-c1ccc2ncccc2c1`, the IC50 in data set [1] (read-out: IC50) came out at 0.052 µM. In addition, the inhibition in data set [2] worked out at 95%. Moreover, the hepatic extraction ratio in data set [3] turned out to be 0.88.
Take `CCOC(=O)n1ccc(Nc2[nH]c3c(-c4ccccc4)c(-c4ccccc4)nn3c(=O)c2-c2ccc(OC)cc2)n1`: the IC50 in data set [1] (read-out: IC50) amounted to 0.011 µM; in the data set on HCT-116, 0.43 µM; in the data set “cells”, 0.015 µM. In addition, the inhibition in data set [2] came out at 93%. Also, the hepatic extraction ratio in data set [3] came to 0.51.
As for `Cc1cc(=O)n2nc(-c3cn[nH]c3)c(-c3ccccc3)c2[nH]1`, in data set [1] (read-out: IC50), the half-maximal inhibitory concentration (IC50) was determined as 50.1 µM. The inhibition result in data set [2] was “inactive”.
For `Cc1[nH]c2c(-c3ccccc3)c(-c3ccccc3)nn2c(=O)c1-c1ccc(O)cc1`, the IC50 in data set [1] (read-out: IC50) was 0.033 µM. In addition, the inhibition in data set [2] came to 93%. Further, the hepatic extraction ratio in data set [3] turned out to be 0.54.
Take `O=c1c(-c2ccc(O)cc2)c(Nc2cc[nH]n2)[nH]c2c(-c3ccccc3)c(-c3ccccc3)nn12`: the concentration for half-maximal inhibition (IC50) is 0.007 µM in data set [1] (read-out: IC50) and 0.527 µM in the data set on HCT-116. Moreover, the inhibition in data set [2] stood at 93%. Further, in data set [3], the hepatic extraction ratio is 0.26.
Take `Cc1cc(=O)n2nc(-c3cccc(F)c3)c(-c3ccccc3)c2[nH]1`: the IC50 in data set [1] (read-out: IC50) is 1.9 µM. In addition, the inhibition in data set [2] turned out to be 76%.
The matching figures for `O=c1cc(Nc2cc[nH]n2)[nH]c2c(-c3ccccc3)c(-c3ccccc3)nn12`: 0.27 µM and 88%.
Consider `Cc1[nH]c2c(N3CCCCC3)c(-c3ccccc3)nn2c(=O)c1-c1cn[nH]c1`, for which the IC50 in data set [1] (read-out: IC50) came to 1.31 µM. For the same compound, the inhibition in data set [2] was 95%.
Consider `O=c1c(-c2ccc3ncccc3c2)c(Nc2cc[nH]n2)[nH]c2c(-c3ccccc3)c(-c3ccccc3)nn12`, for which the IC50 is 0.007 µM in data set [1] (read-out: IC50) and 0.522 µM with HCT-116. The inhibition in data set [2] amounted to 94%. Besides, in data set [3], the hepatic extraction ratio worked out at 0.49.
On to `Cc1cc(=O)n2nc(-c3ccco3)c(-c3ccccc3)c2[nH]1`, for which the IC50 in data set [1] (read-out: IC50) came to 1.5 µM. The inhibition in data set [2] was 65%.
On the same counts, the results for `Cc1cc(=O)n2nc(-c3nccs3)c(-c3ccccc3)c2[nH]1` are 78.8 µM and 63%.
Regarding `Cc1cc(=O)n2nc(-c3cccc(O)c3)c(-c3ccccc3)c2[nH]1`, the half-maximal inhibitory concentration (IC50) in data set [1] (read-out: IC50) was 12.2 µM; with HCT-116, 75 µM; in “cells” it was 7.65 µM. The inhibition in data set [2] was 92%.
Consider `Cc1[nH]c2c(N3CCCCC3)c(-c3ccccc3)nn2c(=O)c1-c1ccc2c(c1)OCO2`, for which the IC50 in data set [1] (read-out: IC50) came out at 0.008 µM. The inhibition in data set [2] was found to be 93%. In addition, the hepatic extraction ratio in data set [3] worked out at 0.83.
On the same counts, the results for `Cc1[nH]c2c(C3CCCCC3)c(-c3ccccc3)nn2c(=O)c1-c1ccc2ncccc2c1` are 0.066 µM, 93% and 0.66.

As usually defined, the IC50 is the point on the concentration scale where inhibition reaches its midpoint. As a reminder, the inhibition is the relative decrease from the control value, in per cent.

These data come from ChEMBL document CHEMBL4834423, “Discovery of AG-270, a First-in-Class Oral MAT2A Inhibitor for the Treatment of Tumors with Homozygous MTAP Deletion” (J Med Chem, 2021).
